Laboratory results as given in US6960590B2, “Orally active salts with tyrosine kinase activity” (Merck & Co. Inc., priority 2000, dated 2005).
Where a name gives a salt, the structure may show the parent alone. One block for each molecule: values may come before it.

Tests used:
Type in all cases: physicochemical
[1] = Solubility of free base 1-11 at room temperature in 0.05M aqueous buffers, water and organic solvents (HPLC)
Experimental: The solubility of 1-11 at room temperature was determined in 0.05M aqueous buffers, water and several organic solvents.

[2] = Measurement of salt solubility: salts of 1-11 formed in situ and suspended in water, HPLC (UV-Vis); details: for Solubility: free base plus 1.05-1.1 molar equivalence of acid, suspended in water for several days, method overestimates the solubility; for pH: pH in equilibrium with the solid phase of the salt suspended in water, most likely lower than pH of the salt in water
Experimental: The solid free base was treated with a concentrated solution of the appropriate acid (1.05-1.1 molar equivalence) and suspended in water for several days. The pH and concentration of the compound in equilibrium with the solid phase was measured by HPLC (UV-Vis detection). This method overestimates the solubility of the salt due to the 5-10% excess of the acid that is added in the preparation of the salts. For the same reason, the pH's that are obtained are most likely lower than the pH of the salt in water.

[3] = Solubility of isolated crystalline salts of 1-11 in water and organic solvents; details: for solubility at 7 days: thermodynamic from solid, RT for 7 days
Experimental: The amorphous mesylate salt was recrystallized from 50:50 Ethanol:THF to give a crystalline powder (Salt 1-11A). The X-ray powder diffraction pattern (XRPD) of the recrystallized mesylate salt 1-11A (FIG. 2) is indicative of crystalline material with multiple diffraction peaks between 5° and 30° 2-theta.
A second batch of crystalline mesylate salt (Salt 1-11B) was obtained by the following procdeure. To a stirred suspension of 1-11 (4.026 g, 9.22 mmol) in MeOH was slowly added at room temperature (RT) one equivalent of a 0.3M solution of methanesulfonic acid (30.73 mL). After all the solid had dissolved, the mixture was filtered into a flask and concentrated under reduced pressure while cooled to about 10° C. The resulting solid was suspended with 200 mL of ethylacetate, filtered, and dried to afford the mesylate salt. […] This crystalline form is different by XRPD than the one recrystallized from the amorphous salt in EtOH/THF (Salt 1-11A).
HCl salt 1-11D is also crystalline as witnessed by the X-ray powder diffraction pattern of the material, having multiple diffraction peaks between 5° and 30° 2-theta. […] (rate of 10° C./min). The compound is birefringent under plane polarized light. It is needle-shaped particles of approximately 5-25 micron. The solubility of salt 1-11D was measured in water and various organic solvents. Table VI below summarizes the solubility of the 1-11D suspended in various solvents for 7 days at room temperature.

[4] = Solubility of salts of 4-9 prepared in situ (pH and concentration by HPLC); details: for Solubility: free base plus 1.05 mole equivalents of acid, suspended in 100 μL of water, rotated overnight, centrifuged; for pH: pH of the liquid residue of the aqueous suspension
Source text: Two forms of the mesylate salt were made: Salt 4-9A above and Salt 4-9B below.

SMILES: CS(=O)(=O)N1CCN(Cc2ccc3[nH]c(-c4cc5ccccc5[nH]c4=O)cc3c2)CC1 [Salt 1-11, 3-[5-(4-Methanesulfonyl-piperazin-1-ylmethyl)-1H-indol-2-yl]-1H-quinolin-2-one]
- Solubility ([1]; 0.05M Carbonate, pH final 10.09, room temperature): 79 µg/mL
- Solubility ([1]; 0.05M Citrate, pH final 4.15, room temperature): 73 µg/mL
- Solubility ([1]; 0.05M Citrate, pH final 5.07, room temperature): 70 µg/mL
- Solubility ([1]; 0.05M Phosphate, pH final 7.93, room temperature): 74 µg/mL
- Solubility ([1]; 0.05M Phosphate, pH final 8.86, room temperature): 73 µg/mL

SMILES: CS(=O)(=O)N1CCN(Cc2ccc3[nH]c(-c4cc5ccccc5[nH]c4=O)cc3c2)CC1 [Mesylate salt of 1-11, 3-[5-(4-Methanesulfonyl-piperazin-1-ylmethyl)-1H-indol-2-yl]-1H-quinolin-2-one]
- Solubility [2]: 580 µg/mL
- pH [2]: 2.3

SMILES: CS(=O)(=O)N1CCN(Cc2ccc3[nH]c(-c4cc5ccccc5[nH]c4=O)cc3c2)CC1 [HCl salt of 1-11, 3-[5-(4-Methanesulfonyl-piperazin-1-ylmethyl)-1H-indol-2-yl]-1H-quinolin-2-one]
- Solubility [2]: 430 µg/mL
- pH [2]: 2.3

SMILES: COCCN(C)CCOc1ccc2[nH]c(-c3cc4ccccc4[nH]c3=O)cc2c1 [Citrate salt of 4-9, 3-(5-{2-[(2-methoxyethyl)(methyl)amino]ethoxy}-1H-indol-2-yl)-2(1H)-quinolinone]
- Solubility [4]: 19800 µg/mL
- pH [4]: 3.33

SMILES: COCCN(C)CCOc1ccc2[nH]c(-c3cc4ccccc4[nH]c3=O)cc2c1 [Tartrate salt of 4-9, 3-(5-{2-[(2-methoxyethyl)(methyl)amino]ethoxy}-1H-indol-2-yl)-2(1H)-quinolinone]
- pH [4]: 3.23

SMILES: COCCN(C)CCOc1ccc2[nH]c(-c3cc4ccccc4[nH]c3=O)cc2c1 [Sulfate salt of 4-9, 3-(5-{2-[(2-methoxyethyl)(methyl)amino]ethoxy}-1H-indol-2-yl)-2(1H)-quinolinone]
- pH [4]: 1.40

SMILES: COCCN(C)CCOc1ccc2[nH]c(-c3cc4ccccc4[nH]c3=O)cc2c1 [Mesylate 4-9B, 3-(5-{2-[(2-methoxyethyl)(methyl)amino]ethoxy}-1H-indol-2-yl)-2(1H)-quinolinone]
- Solubility [4]: 22000 µg/mL

Continued, values first:

- solubility at 7 days ([3]; aqueous ETOH, aqueous with cosolvent or surfactant or cyclodextrin): 4340 µg/mL
- solubility at 7 days ([3]; aqueous IPA, aqueous with cosolvent or surfactant or cyclodextrin): 3990 µg/mL
- solubility at 7 days ([3]; ethanol, organic solvent or mixture): 130 µg/mL
- solubility at 7 days ([3]; isopropanol, organic solvent or mixture): 57 µg/mL
- solubility at 7 days ([3]; water): 620 µg/mL
SMILES: CS(=O)(=O)N1CCN(Cc2ccc3[nH]c(-c4cc5ccccc5[nH]c4=O)cc3c2)CC1 [Salt 1-11D, 3-[5-(4-Methanesulfonyl-piperazin-1-ylmethyl)-1H-indol-2-yl]-1H-quinolin-2-one]

- Solubility [2]: 160 µg/mL
- pH [2]: 2.5
SMILES: CS(=O)(=O)N1CCN(Cc2ccc3[nH]c(-c4cc5ccccc5[nH]c4=O)cc3c2)CC1 [Maleate salt of 1-11, 3-[5-(4-Methanesulfonyl-piperazin-1-ylmethyl)-1H-indol-2-yl]-1H-quinolin-2-one]

- Solubility [2]: 130 µg/mL
- pH [2]: 1.5
SMILES: CS(=O)(=O)N1CCN(Cc2ccc3[nH]c(-c4cc5ccccc5[nH]c4=O)cc3c2)CC1 [Sulfate salt of 1-11, 3-[5-(4-Methanesulfonyl-piperazin-1-ylmethyl)-1H-indol-2-yl]-1H-quinolin-2-one]

- Solubility [2]: 91 µg/mL
- pH [2]: 3.3
SMILES: CS(=O)(=O)N1CCN(Cc2ccc3[nH]c(-c4cc5ccccc5[nH]c4=O)cc3c2)CC1 [Acetate salt of 1-11, 3-[5-(4-Methanesulfonyl-piperazin-1-ylmethyl)-1H-indol-2-yl]-1H-quinolin-2-one]

- Solubility ([3]; acetonitrile, organic solvent or mixture): 30 µg/mL
SMILES: CS(=O)(=O)N1CCN(Cc2ccc3[nH]c(-c4cc5ccccc5[nH]c4=O)cc3c2)CC1 [Salt 1-11B, 3-[5-(4-Methanesulfonyl-piperazin-1-ylmethyl)-1H-indol-2-yl]-1H-quinolin-2-one]

- Solubility [2]: 3.8 µg/mL
- pH [2]: 2.4
SMILES: CS(=O)(=O)N1CCN(Cc2ccc3[nH]c(-c4cc5ccccc5[nH]c4=O)cc3c2)CC1 [Besylate salt of 1-11, 3-[5-(4-Methanesulfonyl-piperazin-1-ylmethyl)-1H-indol-2-yl]-1H-quinolin-2-one]

- Solubility [2]: 200 µg/mL
- pH [2]: 2.9
SMILES: CS(=O)(=O)N1CCN(Cc2ccc3[nH]c(-c4cc5ccccc5[nH]c4=O)cc3c2)CC1 [HBr salt of 1-11, 3-[5-(4-Methanesulfonyl-piperazin-1-ylmethyl)-1H-indol-2-yl]-1H-quinolin-2-one]

- Solubility [2]: 110 µg/mL
SMILES: CS(=O)(=O)N1CCN(Cc2ccc3[nH]c(-c4cc5ccccc5[nH]c4=O)cc3c2)CC1 [Citrate salt of 1-11, 3-[5-(4-Methanesulfonyl-piperazin-1-ylmethyl)-1H-indol-2-yl]-1H-quinolin-2-one]
